Measured values taken from US5420010A, “Assay for evaluating inhibition of polymorphonuclear leukocyte elastase by N-substituted azetidinones” (Merck & Co., Inc., priority 1993, dated 1995).

System: HLE:α1 PI complexes
Assay: Decrease in HLE:α1 PI complexes formed in A23187-stimulated human blood (ELISA)
Assay type: cell-based
Details: after treatment with A23187, 100 μM, 30 minutes
Procedure: The blood was then incubated for 30 minutes at 37° C. with 100 μM A23187 (CAL. BIOCHEM.) to stimulate the release of HLE from polymorphonuclear leukocytes. Platelet rich plasma was removed from each sample and prepared for the analysis of HLE:α1 PI complexes by ELISA, and Aα(1-21) by specific RIA.
(Compound B* differs from Compound B only by the substituent on the phenoxy.) A23187, 100 μM, was added and the blood was incubated for an additional 30 minutes. The amounts of reactivation product and α1 PI:elastase complex in the plasma were determined. The total concentration of α1 PI:Elastase complexes formed was 139 μM after treatment with A23187.

## CNc1ccc2oc(C[C@H]3O[C@@]4(CC[C@H]3C)O[C@H]([C@H](C)C(=O)c3ccc[nH]3)[C@H](C)C[C@H]4C)nc2c1C(=O)O [Compound A23187]
  total concentration of α1 PI:Elastase complexes formed: 139 µM
